{"source": "patent US9234046B2", "about": "“Treatment of renal disease” (OPSONA Therapeutics Ltd, priority 2007, dated 2016)", "test_system": "C57BL/6 mice", "assay": "Warm renal ischemia/reperfusion, 30 minutes ischemia (Example 2)", "type": "in vivo", "settings": "mean±SEM, n=6, 1 day after 30 min ischemia/reperfusion", "protocol": "Nine Experimental groups were used as follows: • 1) Sham-operated mice sacrificed 1 day after surgery, n=6, • 2) PBS-vehicle-treated mice 15 min before ischemia/1 day reperfusion, n=6, • 3) Isotype control antibody 10 mg/kg-treated mice 15 minutes before ischemia/1 day reperfusion, n=6 (The isotype control antibody is mouse IgG1 isotype control purchased from RnD systems (catalogue number MAB002), this isotype control antibody having binding specificity for Keyhole Limpet Hemocyanin (KLH) antigen), • 4) OPN301 anti-TLR2 monoclonal antibody 10 mg/kg-treated mice 15 minutes before ischemia/1 day reperfusion, n=6, • 5) Pargyline 6 mg/kg-treated mice 15 minutes before ischemia/1 day reperfusion, n=6, • 6) PBS-vehicle-treated mice 15 minutes before ischemia/5 days reperfusion, n=6, • 7) Isotype control antibody (RnD systems catalogue number MAB002) 10 mg/kg-treated mice 15 minutes before ischemia/5 days reperfusion, n=6, • 8) OPN301 anti-TLR2 antibody 10 mg/kg-treated mice 15 minutes before ischemia/5 days reperfusion, n=6, • 9) Pargyline 6 mg/kg-treated mice 15 minutes before ischemia/5 days reperfusion, n=6. Experimental Warm Renal Ischemia/Reperfusion\nWarm renal ischemia/reperfusion (I/R) experiments were adapted from a previous study (Stokman et al, 2005). Briefly, a wild type strain of C57BL/6 mice were anesthetized with 10 μl/g of a mix of 2.5 ml ketamine (Ketalar 50 mg/ml, Centravet; Lapalisse, France), 0.5 ml xylazine (Rompun 2.5%, Centravet; Lapalisse, France), and 7 ml NaCl 0.9% (Centravet; Lapalisse, France). During surgery, animals were set on a 35° C. hotplate. After a 2 millimeters incision, the jugular vein was exposed for intravenous injection (insulin syringe; VWR, Fontenay-sous-Bois, France) of 300 μl (1 min infusion) of the considered treatment. The incision was closed after haemostasis (5/0 Ethicrin thread, Ethicon; Auneau, France). Three centimetre in length abdominal cutaneous and muscular incisions were performed; renal pedicles were exposed and clamped for 30 minutes using microaneurysm clamps (AREX; Palaiseau, France). […]", "data": [{"smiles": "C#CCN(C)Cc1ccccc1", "note": "[Pargyline]", "values": [{"measurement": "MDA level (lipid peroxidation)", "setting": "PBS-vehicle 0.082±0.004", "result": "0.051±0.002", "unit": "nmol/mg proteins"}, {"measurement": "MPO activity (neutrophil accumulation in renal tissue)", "setting": "PBS-vehicle 63.2±9.55", "result": "53.48±5.34", "unit": "U MPO/mg protein"}, {"measurement": "F4/80-positive staining (macrophage infiltration)", "setting": "treated 15 min before ischemia (antibodies 10 mg/kg, pargyline 6 mg/kg), PBS-vehicle 3.24±0.21", "result": "1.39±0.15", "unit": "%"}]}]}
